Assays:
[1] = target: T1, cholesterol ester transfer protein (CETP) (Homo sapiens, UniProt P11597); test: CETP inhibition test (transfer of 3H-cholesterol ester from human HDL to biotinylated LDL, SPA); type: biochemical; settings: CETP partially purified from human plasma; 37° C., 18 h; concentration at which transfer is reduced by half
T1 construct: CETP is obtained in partially purified form from human plasma by differential centrifugation and column chromatography; from tissue; host or cells: human plasma
T1 sequence (P11597 18-493): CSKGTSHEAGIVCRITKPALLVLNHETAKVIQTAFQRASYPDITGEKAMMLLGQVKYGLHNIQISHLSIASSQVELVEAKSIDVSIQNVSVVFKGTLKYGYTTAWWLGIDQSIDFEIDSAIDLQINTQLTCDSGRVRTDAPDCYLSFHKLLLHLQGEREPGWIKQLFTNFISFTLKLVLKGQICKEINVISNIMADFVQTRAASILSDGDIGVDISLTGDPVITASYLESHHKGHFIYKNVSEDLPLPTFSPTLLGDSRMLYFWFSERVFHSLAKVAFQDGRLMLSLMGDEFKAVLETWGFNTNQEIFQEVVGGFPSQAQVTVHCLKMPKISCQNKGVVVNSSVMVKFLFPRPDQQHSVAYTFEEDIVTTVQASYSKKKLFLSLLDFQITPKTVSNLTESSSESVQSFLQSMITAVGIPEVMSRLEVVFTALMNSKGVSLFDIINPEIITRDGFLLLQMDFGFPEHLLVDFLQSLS
Method: CETP is obtained in partially purified form from human plasma by differential centrifugation and column chromatography and used for the test. For this purpose, human plasma is adjusted to a density of 1.21 g per ml using NaBr and centrifuged at 50,000 rpm at 4° C. for 18 h. The bottom fraction (d>1.21 g/ml) is applied to a Sephadex®Phenyl-Sepharose 4B (Pharmacia) column, washed with 0.15 m NaCl/0.001 m TrisHCl pH 7.4 and subsequently eluted using dist. water. The CETP-active fractions are pooled, dialysed against 50 mM Na-acetate pH 4.5 and applied to a CM-Sepharose® (Pharmacia) column. Elution is subsequently carried out using a linear gradient (0-1 M NaCl). The pooled CETP fractions are dialysed against 10 mM TrisHCl pH 7.4 and subsequently purified further by chromatography over a Mono Q® column (Pharmacia).
50 ml of fresh human EDTA plasma are adjusted to a density of 1.12 using NaBr and centrifuged at 4° C. in a Ty 65 rotor at 50,000 rpm for 18 h. The upper phase is used to obtain cold LDL. […]
To test the CETP activity, the transfer of ^3H-cholesterol ester from human HD-lipoproteins to biotinylated LD-lipoproteins is measured.
The reaction is terminated by addition of Streptavidin-SPA® beads (Amersham) and the transferred radioactivity is directly determined in a liquid scintillation counter. […]

Compound | IC50 [1] [nM] | melting point [°C]
CC1(C)CC(=O)c2c(nc(C3CCCC3)c(C(=O)c3ccc(C(F)(F)F)cc3)c2-c2ccsc2)C1 [Example 1, 2-Cyclopentyl-7,7-dimethyl-4-(3-thienyl)-3-(4-trifluoromethylbenzoyl)-5,6,7,8-tetrahydro-quinolin-5-one] | 10 | 
CC1(C)CC(=O)c2c(nc(C3CCCC3)c(C(=O)c3ccc(C(F)(F)F)cc3)c2-c2ccncc2)C1 [Example 2] |  | 221 to 224
CC1(C)CC(=O)c2c(nc(C3CCCC3)c(C(=O)c3ccc(C(F)(F)F)cc3)c2C2CCCCC2)C1 [Example 3] |  | 185 to 186

From patent US6958346B2, “4-heteroaryl-tetrahydroquinolines and their use as inhibitors of the cholesterin-ester transfer protein” (Bayer Aktiengesellschaft, priority 1997, dated 2005)
